The assay has as its target T1, Vitamin D3 receptor (Homo sapiens, UniProt P11473).
T1 sequence (P11473 whole entry): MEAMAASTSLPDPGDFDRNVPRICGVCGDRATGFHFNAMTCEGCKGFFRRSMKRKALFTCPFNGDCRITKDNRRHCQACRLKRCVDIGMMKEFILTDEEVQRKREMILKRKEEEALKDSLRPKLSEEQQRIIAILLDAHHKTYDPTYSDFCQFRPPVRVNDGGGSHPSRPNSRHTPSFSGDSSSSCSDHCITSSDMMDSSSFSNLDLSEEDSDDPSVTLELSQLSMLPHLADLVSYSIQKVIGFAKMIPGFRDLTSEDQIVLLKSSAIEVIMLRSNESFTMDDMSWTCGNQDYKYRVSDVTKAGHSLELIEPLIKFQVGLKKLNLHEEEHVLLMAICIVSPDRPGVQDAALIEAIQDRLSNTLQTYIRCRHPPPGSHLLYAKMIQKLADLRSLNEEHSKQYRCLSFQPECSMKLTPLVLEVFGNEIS
The assay is described as follows: Displacement of [3H]1alpha,25-dihydroxyvitamin D3 from human recombinant GST-tagged vitamin D3 receptor LBD expressed in Escherichia coli BL21 after 16 hrs. A general note: Loss of bound radioactivity is the signal in a displacement assay; it reports binding, not function.

For the compound `C=C1[C@H](O)CC(=C/C=C2\CCC[C@]3(C)[C@@H]([C@H](C)[C@@H](CC)CC(O)(CC)CC)CC[C@@H]23)C[C@H]1O`, the IC50 turned out to be 0.38 nM.

Broadly, the IC50 is the concentration that gives 50% inhibition.

The values are drawn from ChEMBL document CHEMBL2057157, “Butyl pocket formation in the vitamin D receptor strongly affects the agonistic or antagonistic behavior of ligands” (J Med Chem, 2012).
